The values that follow come from patent publication US20260062443A1 (ALEXION PHARMACEUTICALS, INC., priority 2022, published 2026).

This assay has as its target T1, Human complement C1s enzyme (Homo sapiens, UniProt P09871).
T1 sequence (P09871 438-688 limits assumed): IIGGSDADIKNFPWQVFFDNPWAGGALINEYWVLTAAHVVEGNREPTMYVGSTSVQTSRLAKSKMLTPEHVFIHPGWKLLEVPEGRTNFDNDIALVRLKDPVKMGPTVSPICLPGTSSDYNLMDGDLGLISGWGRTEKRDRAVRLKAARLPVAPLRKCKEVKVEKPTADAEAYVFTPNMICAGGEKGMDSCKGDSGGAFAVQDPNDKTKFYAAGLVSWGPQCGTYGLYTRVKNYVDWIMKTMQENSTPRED
T1 sequence (P09871 16-437 partner limits assumed): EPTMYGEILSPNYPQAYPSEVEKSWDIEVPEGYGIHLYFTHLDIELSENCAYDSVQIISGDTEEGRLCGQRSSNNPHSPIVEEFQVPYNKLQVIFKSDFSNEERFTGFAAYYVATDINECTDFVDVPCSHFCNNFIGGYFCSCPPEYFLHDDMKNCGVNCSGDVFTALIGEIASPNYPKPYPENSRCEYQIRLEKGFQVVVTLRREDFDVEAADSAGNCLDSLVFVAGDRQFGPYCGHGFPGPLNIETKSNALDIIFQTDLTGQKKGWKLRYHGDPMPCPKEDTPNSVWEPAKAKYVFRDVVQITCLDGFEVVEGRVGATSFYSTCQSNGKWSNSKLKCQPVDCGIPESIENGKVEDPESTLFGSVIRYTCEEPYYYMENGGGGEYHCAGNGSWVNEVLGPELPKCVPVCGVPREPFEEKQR
The assay can be described thus: Human C1s enzyme assay. It is filed as biochemical. The settings on record: human complement C1s enzyme 1.16 nM, substrate Z-L-Lys-SBzl 100 μM, 5 min preincubation; read-out: IC50 (Stars), C1s Inhibiting Activity. The gist of the method:
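IC50 from nonlinear regression of reaction rates versus compound concentration, with rates taken from A405 recorded at 30 s intervals over 30 min after adding 100 μM Z-L-Lys-SBzl plus 100 μM DTNB. Enzyme was human C1s purified from serum, 1.16 nM, given 5 min compound preincubation at room temperature, pH 7.5 Tris/1 M NaCl.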

The IC50 is the point on the concentration scale where inhibition reaches its midpoint.

In the case of `CN1CCc2sc(CNC(=O)[C@@H]3C[C@@H](OC(F)F)CN3C(=O)CNC(=O)c3ccc4c(c3)Oc3ccccc3S4)cc2C1` [Compound 347, (2S,4R)-4-(difluoromethoxy)-N-((5-methyl-4,5,6,7-tetrahydrothieno[3,2-c]pyridin-2-yl)methyl)-1-((phenoxathiine-3-carbonyl)glycyl) pyrrolidine-2-carboxamide], the concentration for half-maximal inhibition (IC50) was > 1000 nM.

Consider `COC[C@H]1C[C@@H](C(=O)N[C@H](C)c2cc3cnccc3[nH]2)N(C(=O)CNC(=O)c2ccc3c(c2)Oc2ccccc2S3)C1` [Compound 132, (2S,4S)-N-((R)-1-(1H-pyrrolo[3,2-c]pyridin-2-yl)ethyl)-4-(methoxymethyl)-1-((phenoxathiine-3-carbonyl)glycyl)pyrrolidine-2-carboxamide], for which the IC50 was < 100 nM.

As for `CC(C)(C)c1ccc(Oc2cccc(C(=O)NCC(=O)N3C[C@H](OC(F)F)C[C@H]3C(=O)NCc3cc4cnccc4[nH]3)c2)cc1` [Compound 273, (2S,4R)-N-((1H-pyrrolo[3,2-c]pyridin-2-yl)methyl)-1-((3-(4-(tert-butyl)phenoxy)benzoyl)glycyl)-4-(difluoromethoxy)pyrrolidine-4-carboxamide], the IC50 was < 100 nM.

For the molecule `C[C@@H](NC(=O)[C@@H]1C[C@@H](S(C)(=O)=O)CN1C(=O)CNC(=O)c1ccc(-c2ccc(F)cc2F)cc1)c1cc2cnccc2[nH]1` [Compound 85, (2S,4R)-N-((R)-1-(1H-pyrrolo[3,2-c]pyridin-2-yl)ethyl)-1-((2′,4′-difluoro-[1,1′-biphenyl]-4-carbonyl)glycyl)-4-(methylsulfonyl)pyrrolidine-2-carboxamide], the IC50 was > 1000 nM.

Consider `CCc1ccc(Oc2cc(F)cc(C(=O)NCC(=O)N3C[C@@](F)(Cn4ccnc4)C[C@H]3C(=O)NCc3cc4cnccc4[nH]3)c2)cc1` [Compound 372, (2S,4S)-4-((1H-imidazol-1-yl)methyl)-N-((1H-pyrrolo[3,2-c]pyridin-2-yl)methyl)-1-((3-(4-ethylphenoxy)-5-fluorobenzoyl)glycyl)-4-fluoropyrrolidine-2-carboxamide], for which the IC50 is < 100 nM.

Turning to `COC[C@@H]1C[C@@H](C(=O)NCc2cc3cnccc3[nH]2)N(C(=O)CNC(=O)c2cccc(Oc3ccc(C)cc3F)c2)C1` (relative stereo) [Compound 318, (2S,4R*)-N-((1H-pyrrolo[3,2-c]pyridin-2-yl)methyl)-1-((3-(2-fluoro-4-methylphenoxy)benzoyl)glycyl)-4-(methoxymethyl)pyrrolidine-2-carboxamide], the IC50 was < 100 nM.

Take `Cc1ccc(Oc2cccc(C(=O)NCC(=O)N3N=CC[C@H]3C(=O)NCc3cc4cnccc4[nH]3)c2F)cc1` [Compound 375, (S)-N-((1H-pyrrolo[3,2-c]pyridin-2-yl)methyl)-1-((2-fluoro-3-(p-tolyloxy)benzoyl)glycyl)-4,5-dihydro-1H-pyrazole-5-carboxamide]: the IC50 is < 100 nM.

Consider `Cc1ccc(Oc2cccc(C(=O)NCC(=O)N3[C@H]4C[C@@]4(C)C[C@H]3C(=O)N[C@H](C)c3cc4cnccc4[nH]3)c2)c(F)c1` [Compound 320, (1S,3S,5S)-N-((R)-1-(1H-pyrrolo[3,2-c]pyridin-2-yl)ethyl)-2-((3-(2-fluoro-4-methylphenoxy)benzoyl)glycyl)-5-methyl-2-azabicyclo[3.1.0]hexane-3-carboxamide], for which the IC50 was < 100 nM.

Consider `CO[C@@H]1C[C@@H](C(=O)N[C@H](C)c2cc3cnccc3[nH]2)N(C(=O)CNC(=O)c2ccc3c(c2)Oc2ccccc2S3)C1` [Compound 160, (2S,4R)-N-((R)-1-(1H-pyrrolo[3,2-c]pyridin-2-yl)ethyl)-4-methoxy-1-((phenoxathiine-3-carbonyl)glycyl)pyrrolidine-2-carboxamide], for which the IC50 was < 100 nM.

In the case of `O=C(NCC(=O)N1CC2(C[C@H]1C(=O)NCc1nc3cnccc3o1)OCCO2)c1ccc2c(c1)Oc1ccccc1S2` [Compound 31, (S)-N-(oxazolo[4,5-c]pyridin-2-ylmethyl)-7-((phenoxathiine-3-carbonyl)glycyl)-1,4-dioxa-7-azaspiro[4.4]nonane-8-carboxamide], the IC50 is > 1000 nM.

As to `O=C(NCC(=O)N1CC2(C[C@H]1C(=O)NCc1cc3cnccc3[nH]1)OCCO2)c1ccc(-c2ccccc2)cc1` [Compound 17, (S)-N-((1H-pyrrolo[3,2-c]pyridin-2-yl)methyl)-7-(([1,1′-biphenyl]-4-carbonyl)glycyl)-1,4-dioxa-7-azaspiro[4.4]nonane-8-carboxamide], the half-maximal inhibitory concentration (IC50) is < 100 nM.

As for `C[C@@]12C[C@@H]1N(C(=O)CNC(=O)c1cccc(-c3ccccc3)n1)[C@H](C(=O)NCc1cc3cnccc3[nH]1)C2` [Compound 159, (1S,3S,5S)-N-((1H-pyrrolo[3,2-c]pyridin-2-yl)methyl)-5-methyl-2-((6-phenylpicolinoyl)glycyl)-2-azabicyclo[3.1.0]hexane-3-carboxamide], the IC50 was > 1000 nM.

Consider `O=C(NCC(=O)N1CC2(C[C@H]1C(=O)NCc1cc3cnccc3s1)OCCO2)c1ccc2c(c1)Oc1ccccc1S2` [Compound 54, (S)-7-((phenoxathiine-3-carbonyl)glycyl)-N-(thieno[3,2-c]pyridin-2-ylmethyl)-1,4-dioxa-7-azaspiro[4.4]nonane-8-carboxamide], for which the IC50 was < 100 nM.

For the molecule `O=C(NCC(=O)N1CC2(C[C@H]1C(=O)NCc1cc3cnccn3c1)OCCO2)c1ccc2c(c1)Oc1ccccc1S2` [Compound 111, 7-{2-[(Phenoxathiine-3-carbonyl)-amino]-acetyl}-1,4-dioxa-7-aza-spiro[4.4]nonane-8-carboxylic acid (pyrrolo[1,2-a]pyrazin-7-ylmethyl)-amide], the IC50 is < 100 nM.

On to `O=C(NCC(=O)N1C[C@H](OC(F)F)C[C@H]1C(=O)N[C@H](CO)c1cc2cnccc2[nH]1)c1ccc2c(c1)Oc1ccccc1S2` [Compound 93, (2S,4R)-4-(difluoromethoxy)-N-((S)-2-hydroxy-1-(1H-pyrrolo[3,2-c]pyridin-2-yl)ethyl)-1-((phenoxathiine-3-carbonyl)glycyl)pyrrolidine-2-carboxamide], for which the IC50 was < 100 nM.

Take `O=C(NCC(=O)N1CC2(C[C@H]1C(=O)NCc1cc3cnccc3[nH]1)OCCO2)c1ccc(-c2ccc(F)cc2F)cc1` [Compound 117, (S)-N-((1H-pyrrolo[3,2-c]pyridin-2-yl)methyl)-7-((2′,4′-difluoro-[1,1′-biphenyl]-4-carbonyl)glycyl)-1,4-dioxa-7-azaspiro[4.4]nonane-8-carboxamide]: the IC50 lay within 100 to 1000 nM.

With `C[C@@H](NC(=O)[C@@H]1C[C@](F)(Cn2ccnn2)CN1C(=O)CNC(=O)c1ccc2c(c1)Oc1ccccc1S2)c1cc2cnccc2[nH]1` [Compound 216, (2S,4R)-4-((1H-1,2,3-triazol-1-yl)methyl)-N-((R)-1-(1H-pyrrolo[3,2-c]pyridin-2-yl)ethyl)-4-fluoro-1-((phenoxathiine-3-carbonyl)glycyl)pyrrolidine-2-carboxamide], the IC50 is < 100 nM.

With `CCc1ccc(Oc2cc(F)cc(C(=O)NCC(=O)N3[C@H]4C[C@@]4(C)C[C@H]3C(=O)NCc3cc4cnccc4[nH]3)c2)cc1` [Compound 371, (1S,3S,5S)-N-((1H-pyrrolo[3,2-c]pyridin-2-yl)methyl)-2-((3-(4-ethylphenoxy)-5-fluorobenzoyl)glycyl)-5-methyl-2-azabicyclo[3.1.0]hexane-3-carboxamide], the IC50 was < 100 nM.

On to `COC[C@@]1(F)C[C@@H](C(=O)NCc2cc3cnccc3[nH]2)N(C(=O)CNC(=O)c2ccc3c(c2)Oc2ccccc2S3)C1` [Compound 25, (2S,4R)-N-((1H-pyrrolo[3,2-c]pyridin-2-yl)methyl)-4-fluoro-4-(methoxymethyl)-1-((phenoxathiine-3-carbonyl)glycyl)pyrrolidine-2-carboxamide], for which the IC50 was < 100 nM.

For the molecule `Cc1ccc(Oc2cccc(C(=O)NCC(=O)N3C[C@H](OC(F)F)C[C@H]3C(=O)NCc3cc4cnccc4[nH]3)c2)c(C)c1` [Compound 298, (2S,4R)-N-((1H-pyrrolo[3,2-c]pyridin-2-yl)methyl)-4-(difluoromethoxy)-1-((3-(2,4-dimethylphenoxy)benzoyl)glycyl) pyrrolidine-2-carboxamide], the IC50 was < 100 nM.

Take `CC1CCN(C(=O)CNC(=O)c2ccc3c(c2)Oc2ccccc2S3)[C@@H]1C(=O)NCc1cc2cnccc2[nH]1` (stereo partly drawn) [Compound 243, (2S)-N-((1H-pyrrolo[3,2-c]pyridin-2-yl)methyl)-3-methyl-1-((phenoxathiine-3-carbonyl)glycyl)pyrrolidine-2-carboxamide]: the IC50 is > 1000 nM.

`Cc1ccc(Oc2cccc(C(=O)NCC(=O)N3[C@H]4C[C@@]4(C)C[C@H]3C(=O)NCc3cc4cnccc4[nH]3)c2)c(F)c1` [Compound 315, (1S,3S,5S)-N-((1H-pyrrolo[3,2-c]pyridin-2-yl)methyl)-2-((3-(2-fluoro-4-methylphenoxy)benzoyl)glycyl)-5-methyl-2-azabicyclo[3.1.0]hexane-3-carboxamide]: the IC50 is < 100 nM.
